Where a name gives a salt, the structure may show the parent alone.
biological target: acetylcholinesterase (Homo sapiens, UniProt P22303); experiment: Cholinesterase Inhibition Assay (photometric method of Ellman et al.); type: biochemical; settings: not given
Sequence (P22303 32-614): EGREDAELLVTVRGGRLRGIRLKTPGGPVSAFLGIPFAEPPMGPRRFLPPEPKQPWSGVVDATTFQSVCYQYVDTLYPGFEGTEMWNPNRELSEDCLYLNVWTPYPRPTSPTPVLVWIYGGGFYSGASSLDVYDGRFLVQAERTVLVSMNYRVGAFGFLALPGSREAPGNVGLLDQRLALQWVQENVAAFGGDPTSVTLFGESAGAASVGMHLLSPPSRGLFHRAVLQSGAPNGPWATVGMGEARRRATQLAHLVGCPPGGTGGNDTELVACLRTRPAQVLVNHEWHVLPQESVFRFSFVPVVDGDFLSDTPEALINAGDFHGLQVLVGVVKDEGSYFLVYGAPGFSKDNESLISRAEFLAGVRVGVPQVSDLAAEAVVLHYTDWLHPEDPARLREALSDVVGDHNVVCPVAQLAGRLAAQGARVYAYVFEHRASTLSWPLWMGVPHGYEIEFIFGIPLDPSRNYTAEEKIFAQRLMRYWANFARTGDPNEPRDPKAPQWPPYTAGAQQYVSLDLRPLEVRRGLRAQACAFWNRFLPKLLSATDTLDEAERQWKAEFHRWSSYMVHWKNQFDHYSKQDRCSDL

| Structure (SMILES) | IC50 |
| --- | --- |
| CN1CCN(C2CCCc3nc4ccccc4c(N)c32)CC1 (stereo not drawn) [1-(4-Methyl-1-piperazinyl)-1,2,3,4-tetrahydro-9-acridinamine] | > 1000 µM |
| Nc1c2c(nc3ccccc13)CCCC2N1CCOCC1 (stereo not drawn) [1-(4-Morpholinyl)-1,2,3,4-tetrahydro-9-acridinamine] | > 1000 µM |
| CCCNC1CCCc2nc3ccccc3c(N)c21 (stereo not drawn) [N1 -Propyl-1,2,3,4-tetrahydro-1,9-acridinediamine] | 13 µM |
| Nc1c2c(nc3ccccc13)CCCC2N1CCCCC1 (stereo not drawn) [1-(1-Piperidinyl)-1,2,3,4-tetrahydro-9-acridinamine] | 8.4 µM |
| Nc1c2c(nc3ccccc13)CCCC2N1CCN(c2ccccc2)CC1 (stereo not drawn) [1-(4-Phenyl-1-piperazinyl)-1,2,3,4-tetrahydro-9-acridinamine, maleate] | > 1000 µM |
| Nc1c2c(nc3ccccc13)CCCC2N1CCCC1 (stereo not drawn) [1-(1-Pyrrolidinyl)-1,2,3,4-tetrahydro-9-acridinamine] | 18 µM |
| Nc1c2c(nc3ccccc13)CCCC2NCc1ccccc1 (stereo not drawn) [N1 -Benzyl-1,2,3,4-tetrahydro-1,9-acridinediamine] | 20 µM |
| Nc1c2c(nc3ccccc13)CCCC2NCCc1ccccc1 (stereo not drawn) [N1-(2-Phenylethyl)-1,2,3,4-tetrahydro-1,9-acridinediamine] | 19 µM |
| CCCCNC1CCCc2nc3ccccc3c(N)c21 (stereo not drawn) [N1 -Butyl-1,2,3,4-tetrahydro-1,9-acridinediamine] | 49 µM |
| [N-]=[N+]=NC1CCCc2nc3ccccc3c(N)c21 (stereo not drawn) [1-Azido-1,2,3,4-tetrahydro-9-acridinamine, maleate] | 12 µM |
| COc1ccc(CNC2CCCc3nc4ccccc4c(N)c32)cc1OC (stereo not drawn) [N1-(3,4-Dimethoxybenzyl)-1,2,3,4-tetrahydro-1,9-acridinediamine] | 39 µM |
| CCNC1CCCc2nc3ccccc3c(N)c21 (stereo not drawn) [N1 -Ethyl-1,2,3,4-tetrahydrol, 9-acridinediamine, fumarate, hemi-hydrate] | 4.8 µM |

system: mice; experiment: Dark Avoidance Assay (reversal of scopolamine induced memory deficit); type: in vivo; settings: 0.16 mg/kg body weight, retested 24 hours later
Protocol: This utility can also be ascertained by determining the ability of these compounds to restore cholinergically deficient memory in the Dark Avoidance Assay. In this assay mice are tested for their ability to remember an unpleasant stimulus for a period of 24 hours. A mouse is placed in a chamber that contains a dark compartment; a strong incadescent light drives it to the dark compartment, where an electric shock is administered through metal plates on the floor. The animal is removed from the testing apparatus and tested again, 24 hours later, for the ability to remember the electric shock.
If scopolamine, an anticholinergic that is known to cause memory impairment, is administered before an animal's initial exposure to the test chamber, the animal re-enters the dark compartment shortly after being placed in the test chamber 24 hours later. This effect of scopolamine is blocked by an active test compound, resulting in a greater interval before re-entry into the dark compartment.
The results for an active compound are expressed as the percent of a group of animals in which the effect of scopolamine is blocked, as manifested by an increased interval between being placed in the test chamber and re-entering the dark compartment.

| Structure (SMILES) | % of animals with scopolamine induced memory deficit reversal |
| --- | --- |
| Nc1c2c(nc3ccccc13)CCCC2N1CCCCC1 (stereo not drawn) [1-(1-Piperidinyl)-1,2,3,4-tetrahydro-9-acridinamine] | 13% |

same assay, conditions: 0.31 mg/kg body weight, retested 24 hours later

| Structure (SMILES) | % of animals with scopolamine induced memory deficit reversal |
| --- | --- |
| CCCNC1CCCc2nc3ccccc3c(N)c21 (stereo not drawn) [N1 -Propyl-1,2,3,4-tetrahydro-1,9-acridinediamine] | 20% |
| CNC(=O)Oc1ccc2c(c1)[C@]1(C)CCN(C)[C@@H]1N2C [Physostigmine, reference compound] | 20% |

Reference: patent US4868177A, “1,2,3,4-tetrahydro-1,9-acridinediamines, pharmaceutical compositions and use” (priority 1988, dated 1989)
